Measured values taken from PubChem BioAssay (NCI).
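Tested at 5 concentrations; 48 h exposure; 96-well plates; endpoints linearly interpolated, else capped at highest concentration. TGI denotes the concentration required for complete inhibition of growth.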

Assays:
Test in all cases: DTP human tumour cell line panel, 48 h
DMS 273 small cell lung = tested on: DMS 273 small cell lung
HOP-18 NSCLC = tested on: HOP-18 NSCLC
KM20L2 colon = tested on: KM20L2 colon
M19-MEL melanoma = tested on: M19-MEL melanoma
SNB-78 CNS = tested on: SNB-78 CNS
RXF-631 renal = tested on: RXF-631 renal

SMILES | TGI (DMS 273 small cell lung) [µM] | TGI (HOP-18 NSCLC) [µM] | TGI (KM20L2 colon) [µM] | TGI (M19-MEL melanoma) [µM] | TGI (SNB-78 CNS) [µM] | TGI (RXF-631 renal) [µM]
CC(=O)CC(=O)CCC(=O)O | > 100 | > 100 | > 100 | > 100 | > 100 | –
C#CCC1(C(=O)OCC)C(=O)c2ccccc2N(C)C1=O (stereo not drawn) | > 100 | > 100 | > 100 | > 100 | > 100 | > 100
CC1(C2CCC3(C)OC3C2)CO1 (stereo not drawn) | > 100 | > 100 | > 100 | > 100 | > 100 | > 100
O=C(CC1Sc2ccccc2NC1=O)Nc1ccc(Cl)cc1 (stereo not drawn) | > 100 | > 100 | > 100 | > 100 | > 100 | > 100
O=C1C=CC(=O)c2c(O)c(N3CCN(CCOCCO)CC3)c(Cl)c(O)c21 | 2.25 | 2.73 | 2.07 | 1.08 | 1.35 | –
